{"source": "patent US20060270643A1", "about": "“Hyfroxyflutamide induced pathways related to androgen receptor negative prostate cancer cells” (priority 2002, published 2006)", "key": {"[1]": {"system": "p44/42 MAP kinase (ERK1 and 2)", "assay": "Immunoblot of phosphorylated p44/42 MAP kinase in DU145 cells", "type": "cell-based, human", "experimental": "7. […] (A) DU145 cells were grown in 100 mm dishes and serum-starved for 24 hours. The cells were lysed on ice. Equal amounts of cell lysate were analyzed by 12% SDS-PAGE and subsequent immunoblotted with anti-phospho ERK1/2 and anti-ERK1/2 antibodies. (B) Different cell lines, at 70 to 80% confluence, were lysed and immunoblotted with anti-AR polyclonal antibody, NH27. (C) DU145 cells were pre-incubated with MEK1/2 inhibitor U0126, or U0124 before HF, EGF, and ethanol treatment. Cells were lysed and immunoblotted with anti-phospho ERK1/2 and anti-ERK1/2 antibodies. (D) CWR2 and (E) PC3-AR cells were grown in 100 mm dishes and serum-starved for 24 hours. The cells were treated with HF, EGF or ethanol vehicle for 15 mins and immunoblotted with anti-phospho-ERK1/2 and anti-ERK1/2 antibodies. […] MMTV-ARE-Luc reporter plasmid was cotransfected with or without pSG5AR into DU145 cells. After 18 hours, cells were treated with 1 nM DHT, 1 μM HF or both for another 18 hours, and then harvested. Cell lysates were collected and assayed for the luciferase activity.\n9. […] After 15 min treatment, cells were lysed and immunoblotted with anti-phospho ERK1/2 and antiERK1/2 antibodies. […] EGFR was immunoprecipitated from the cell lysates, and their phosphotyrosine level was determined by anti-phosphotyrosine antibody. All the results were visualized using enhanced chemiluminescence.\n198. This assay uses a polyclonal antibody specific against the activated p44/42 MAP kinases (Cell Signaling Technology, Beverly, Mass.), which detects p44 and p42 MAP kinase (ERK1 and 2) only when catalytically activated by dual phosphorylation at Thr202 and Tyr204. DU145 cells were seeded at 1×10^5 cells per 100 mm plate and allowed to attach overnight and then the media were replaced with serum-free DMEM media for 24 hours. The cells were pre-treated with MAP kinase inhibitors, EGFR antibodies, or cycloheximide for 1 hour and followed by HF, EGF, or vehicle treatment. Cells were washed twice with PBS, harvested at indicated times, and lyzed with RIPA buffer for 30 min on ice. The protein concentrations were determined by Bradford assay, and equal amount of protein was resolved by SDS-PAGE. Gels were transferred, immunoblotted with p44/42 MAP kinase antibody (1/1000), and then incubated with secondary antibody. Proteins were visualized by the enhanced chemiluminescence system (NEN™ Life Science Products, Boston, Mass.). P44/42 MAP kinase (total ERK1/2) was blotted as a control."}, "[2]": {"system": "AR", "assay": "AR phosphorylation in COS-1 cells transfected with wtAR or mtAR", "type": "cell-based", "experimental": "(§1) 14. […] Anti-pSer, anti-phosphoserine antibody. […] Total AR protein was blotted using an anti-AR antibody (AR), and AR phosphorylation was detected using an anti-phospho-AR (S210) antibody (pAR). […] The cells were then harvested for immunoprecipitation with anti-AR antibody and Western blot analysis. NH27, anti-AR antibody, anti-pSer, anti-phosphoserine antibody.\n(§2) 219. The imrnunoprecipitation and Western blotting were performed as previously described (Lin, H. K., et al. (2001) Proc Natl Acad Sci USA 98, 7200-7205). The cell extracts (1 mg) were immunoprecipitated with the indicated antibody. The immunocomplexes were subjected to 8% SDS-PAGE and immunoblotted with the indicated antibody."}, "[3]": {"system": "AR", "assay": "AR phosphorylation in LNCaP cells (immunoprecipitation / Western blot)", "type": "cell-based, human", "experimental": "as §1, §2"}, "[4]": {"system": "phospho-ERK1/2", "assay": "Immunocytochemical staining of phospho-ERK1/2 in patients' prostate tumor biopsies", "type": "in vivo, human", "conditions": "recurrent tumors of four patients progressing while receiving flutamide (androgen ablation therapy); one value per patient", "experimental": "6. […] Prostate tumor tissue sections from the same patient with either the pre- (A and C) and post-androgen ablation plus flutamide therapy (B and D), were immunohistochemically stained for phosphorylated ERK1/2. Sections were counterstained with Mayer Hematoxylin Blue (A and B). Original magnification ×400.\n196. Immunocytochemical staining were performed on formalin-fixed, paraffin-embedded tissue sections using antibodies ERK1,and ERK2 (SC-94, and SC-154, 1/400 dilution), and phospho-ERK1/2 (SC-7383, 1/50 dilution) all from Santa Cruz (Santa Cruz, Calif.). Sections were cut at 4 to 5 microns and deparaffinized according to established procedures and quenched with 3% hydrogen peroxide for 6 min. Antigen unmasking with heat retrieval in citrate buffer/pH 6.0 was accomplished by placing slides in a microwave (1500 watts) pressure cooker for 30 minutes. Slides were rinsed and stained for 45 minutes with primary antibody, and then incubated for 20 min with secondary antibody and streptavidin-HRP. Slides were developed with AEC+, rinsed and counterstained with Mayer Hematoxylin Blue in 0.3% ammonia water.\n201. […] Each slide was examined and scored the number of the cells stained positive for phosph-ERK1/2 under the 100× high power field. […]"}, "[5]": {"system": "cyclin D1 promoter (−1745D1-Luc)", "assay": "Cyclin D1 promoter luciferase reporter assay in DU145 cells", "type": "cell-based, human", "conditions": "10^−6 M HF or 30 ng/ml EGF", "experimental": "(§3) 11. […] (A) DU145 cells were treated with HF (1 μM), or EGF (10 ng/ml), or ethanol vehicle for 12 hours after the serum starvation. Cells were lysed and blotted with anti-cyclin D1 antibody. (B) DU145 cells were serum starved for 24 hours and then co-transfected DN Ras or DN Raf together with […] Luc reporter with SuperFect (Qiagen). After 4 hours, the medium was changed to normal medium (10% serum) for 18 hours and then changed to serum starvation condition for another 24 hours and then treated with HF, EGF, or ethanol vehicle control. Cells were lysed for luciferase activity analysis.\n197. DU145 cells were obtained from American Type Culture Collection and cultured in Dubecco's modified Eagles's medium (DMEM) supplemented with 10% fetal bovine serum (FBS). Cells (1×10^5) were seeded in 35 mm plates and transfected with the SuperFect transfection reagent (Qiagen, Chatworth, Calif.). After 4 hours the media were changed to serum-free DMEM media for 24 hours. Thereafter, the cells were treated with HF, EGF, and vehicle for 18 hours and then lysed for luciferase assay. Luciferase activity was normalized for taansfection efficiency using pRL-TK as an internal control. Luciferase assays were performed using dual-luciferase reporter system (Promega, Madison, Wis.)."}, "[6]": {"system": "DU145 cells", "assay": "Cell proliferation assay (hemacytometer counting)", "type": "cell-based, human", "experimental": "10. […] (A) DU145 cells were seeded in 10% FBS DMEM medium and 24 hours later cells were changed to serum free medium. 48 hours later changed the medium to 0.5% FBS medium and treated with ethanol, HF, or EGF. Every 24 hours, the cells were counted by hemacytometer. […]. […] (B) DU145 cells were seeded and transfected with anti-sense oligonucleotide of Ras (IRIS 2503: 5′-[…]-3′), Raf (IIUS: 5132:5′-[…]-3′) and HIV (5′-[…]-3′) (Chen, G., Oh, S., Monia B. P., and Stacey, D. W., J. Biol. Chem., 271: 28259-28265, 1996, Monia, B. P., et al., Proc. Natl. Acad. Sci. USA, 93: 15481-15484, 1996.) by SuperFect (Qiagen). 24 hour after serum starvation, we changed the cells to medium containing 0.5% FBS, and treated the cells as described in A. Cells were counted by hemacytometer every 24 hours. The cell lysate were blotted with anti-H-Ras and Raf antibodies and β-actin was blotted for loading control.\n199. DU145 cells were seeded at 2×10^4/ml on 35 mm plates and allowed to attach overnight. Cells were kept in serum-free DMEM medium for 24 hours, and then media were replaced with DMEM-0.5% FBS and treated as indicated. Cells were trypsinized and counted with a hemacytometer at different times after treatments. For the antisense oligonuleotide experiments, cells were incubated with a fixed ratio of oligonucleotide versus SuperFect (2.5 μl of SuperFect per 100 nM oligo) for 4 hours and then the oligo-containing medium was replaced with DMEM-0.5% FBS. Cells were trypsinized and counted by hemacytometer at indicated times."}, "[7]": {"system": "cyclin D1", "assay": "Western blot of cyclin D1 and cell cycle related gene products in DU145 cells", "type": "cell-based, human", "experimental": "as §3"}, "[8]": {"system": "association between Ras and Raf", "assay": "Ras-Raf immunoprecipitation assay in DU145 cells", "type": "cell-based, human", "conditions": "lysates of treated DU145 cells; 1 μM HF, 10 ng/ml EGF, 1 μM 9-cis retinoic acid", "experimental": "8. […] (A) DU145 cells were treated with ethanol (lane 1), 10 ng/ml EGF (lane 2), 1 μM 9-cis retinoic acid (lane 3), and 1 μM HF (lane 4) after 24 hour serum starvation. Cells were lysed and 300 μg of total protein were immunoprecipitated with anti-Ras antibody, pulled-down by a protein A/G agarose beads, and detected with an anti-Raf antibody. (B) DU145 cells were transfected with pCDNA3.1 or pCDNA3.1-Ras N17 as indicated. After 24 hours serum starvation, the cells were treated with different ligands for 20 min, and then harvested. Western blots were performed with antibodies against phosphoERK1/2 and ERK1/2. The density of phospho-ERK1/2 shown as Optical Density (OD) were determined by the Versa Doc Imaging System (Bio-Rad) and quantified by Quantity One software.\n200. Serum-stared and treated DU145 cells were lysed with RIPA buffer for 30 min on ice. Lysates were then centrifuiged at 12,000 g for 10 min at 4° C. and protein concentrations were determined by the Bradford assay. 500 μg of cell lysates were incubated for 4 hours with either anti-Ras or anti-EGFR antibody (1/100, Santa Cruz Biotechnology) to the protein-antibody mixture and then added in 20 μl of protein A/G plus-agarose (Santa Cruz Biotechnology) for another 4 hours incubation with constant rotation. The immunoprecipitates were washed four times with cold PBS, resolved by SDS-PAGE, and immunoblotted by anti-Raf-1 antibody, or anti-phospho-tyrosine monoclonal antibody (Oncogene Research, Calbiochem, La Jolla, Calif.). The results were visualized by chemiluminescence."}}, "note": "“And” between values parts separate entries of the source, which are not always exact repeats. Identical values can stand only once. “Also recorded” adds a separate entry of the source. Like-named read-outs stand apart in the source and are kept apart here."}
{"compound": "N#CC(=C(/N)Sc1ccccc1N)/C(C#N)=C(\\N)Sc1ccccc1N", "note": "[U0126]", "values": [{"measurement": "block of HF-mediated MAP kinase activation", "setting": "[1]", "value": "can block HF-mediated MAP kinase activation"}]}
{"compound": "IGF-1: insulin-like growth factor-1", "values": [{"measurement": "phosphorylation of mutant AR (mtAR) (S210A/S790A)", "setting": "[2]; IGF-1", "value": "did not induce phosphorylation"}, {"measurement": "wild-type (wtAR) phosphorylation", "setting": "[2]; IGF-1 for 4 hours", "value": "induced wild-type (wtAR) phosphorylation"}, {"measurement": "AR phosphorylation", "setting": "[3]; LNCaP cells (P38), IGF-1 for 4 hours", "value": "induced AR phosphorylation"}, {"measurement": "AR phosphorylation at S210", "setting": "[3]; LNCaP cells treated with IGF-1, site-specific anti-phosphoserine AR antibody", "value": "detected"}]}
{"compound": "COc1cc2ncnc(Nc3cccc(Cl)c3)c2cc1OC", "note": "[AG1478]", "values": [{"measurement": "levels of phospho-ERK1/2 induced by either HF or EGF", "setting": "[1]; preincubation with 100 nM for 1 hour", "value": "decreased levels of phospho-ERK1/2"}]}
{"compound": "CC(C)C(=O)Nc1ccc([N+](=O)[O-])c(C(F)(F)F)c1", "note": "[Flutamide]", "values": [{"measurement": "cells stained positive for phospho-ERK1/2", "setting": "[4]", "value": "30% and 41% and 52% and 45%"}]}
{"compound": "C[C@@H]1C[C@@H]([C@H](O)CC2CC(=O)NC(=O)C2)C(=O)[C@@H](C)C1", "note": "[cycloheximide]", "values": [{"measurement": "block of MAP kinase activation mediated by HF or EGF", "setting": "[1]; Ten ng/ml cycloheximide, 1 hour pre-treatment", "value": "failed to block MAP kinase activation"}, {"measurement": "MAP kinase activation with ethanol added to cycloheximide treatment", "setting": "[1]; no HF or EGF (lane 7)", "value": "slight increment"}]}
{"compound": "CS/C(N)=C(C#N)/C(C#N)=C(\\N)SC", "note": "[U0124]", "values": [{"measurement": "block of HF-mediated MAP kinase activation", "setting": "[1]; DU145 cells pre-incubated with inhibitor before HF treatment", "value": "not"}]}
{"compound": "EGF: epidermal growth factor", "values": [{"measurement": "induction of cyclin D1 promoter (−1745D1-Luc) activity", "setting": "[5]", "value": "about 2 fold"}, {"measurement": "cell proliferation", "setting": "[6]; cells maintained in 10% FBS medium (data not shown)", "value": "no significant stimulation of cell proliferation"}, {"measurement": "cell proliferation", "setting": "[6]; low serum (0.5% FBS) after serum starvation", "value": "stimulate the DU 145 cell growth significant; also recorded: can promote cell proliferation"}, {"measurement": "cyclin D1 expression", "setting": "[7]; HF (1 μM) or EGF (10 ng/ml) for 12 hours after serum starvation", "value": "induced"}, {"measurement": "other cell cycle related gene products (p27, p21, Ki67, PCNA)", "setting": "[7]; after HF- or EGF-treatment", "value": "no significant change"}, {"measurement": "Raf detected in the Ras immunocomplex", "setting": "[8]", "value": "detected"}]}
{"compound": "CC1=C(/C=C/C(C)=C\\C=C\\C(C)=C\\C(=O)O)C(C)(C)CCC1", "note": "[9 cis-retinoic acid, 9-cis retinoic acid]", "values": [{"measurement": "Raf detected in the Ras immunocomplex", "setting": "[8]", "value": "not"}]}
